Test results published in paper PMC3893073, “Structural and Functional Analyses of a Sterol Carrier Protein in Spodoptera litura” (PLoS ONE, 2014).
“Also recorded” adds a separate entry of the source. Where two headings read alike, the source gives them in different places.

Tests used:
[1] = target: SlSCPx-2 (Spodoptera litura, UniProt D1GJ60); assay: 1,8-ANS fluorescence displacement (competitive binding) assay, wild type rSlSCPx-2; conditions: for RBAchol / RBApal: IC50 of wild type for the same ligand (=100%)
Protocol: Binding of the fluorescent probe 1, 8-ANS to sterol carrier protein (SlSCPx-2) is measured by relative increase in fluorescent intensity. Steady-state fluorescence spectra were measured on a Cary Eclipse fluorescence spectrophotometer (Varian, Mulgrave, Australia) using a 1-cm path length cuvette. The binding was monitored by measuring the fluorescence signal between 400 and 600 nm following excitation at 350 nm. Slit widths were set to 5 and 10 nm for the excitation and emission monochromators, respectively. […] All measurements were performed at room temperature and the samples were equilibrated for 5 min prior to measurement. At each of the given concentrations, at least three replicates were performed.
(§1) After the incubation, each potential ligand at a serial of concentration (0–100 µM) was added into the 1, 8-ANS-protein mixture for another 2.5 min and the fluorescence intensity of the 1,8-ANS-protein complex was measured as previously described. The control was the reaction of ANS probe and a series of concentration (0–100 µM) of ligands without the protein. To calculate binding activity of the ligands and the protein, the fluorescence intensity of the controls were subtracted from the total fluorescence intensity of the 1, 8-ANS-protein complex in the presence of ligands tested. Each ligand replacement assay was repeated for three times.

[2] = system: S. litura larvae; assay: Diet bioassay for inhibition of growth of S. litura larvae; type: in vivo, Spodoptera litura; conditions: for inhibitory effect on the growth of S. litura larvae: newly hatched larvae, artificial diet with 3, 12 and 48 µg/g diet; for body weight of the treated larvae: 13 days post egg hatching, increasing concentrations 3, 12, 48 µg/g diet, compared to the control
Protocol: Newly hatched S. litura larvae (30 larvae per treatment) were reared in artificial diet in presence of each chemical at different concentrations of 3, 12 and 48 µg/g diet. Control larvae were fed in the diet with diluted acetone (solvent for the chemical). Fresh diet was provided every other day. Larvae development was monitored until pupation. Larvae were weighted at 13 days post egg hatching when most of the larvae were at 5th instar stage.

[3] = system: A. aegypti; design: method as in PMID 15627652; conditions: cited from earlier work
[4] = system: H. armigera neonates; conditions: cited from earlier work
[5] = target: SlSCPx-2 F110W (Spodoptera litura, UniProt D1GJ60, F500W); assay: biochemical; type: binding
Protocol: (§2) Binding of the fluorescent probe 1, 8-ANS to SlSCPx-2 can be competed with physiological ligands. SlSCPx-2 at 15 µM was incubated with 1, 8-ANS at 15 µM in the reaction buffer (pH 7.0) at room temperature for 2.5 min. […] […] To calculate binding activity of the ligands and the protein, the fluorescence intensity of the controls were subtracted from the total fluorescence intensity of the 1, 8-ANS-protein complex in the presence of ligands tested. Each ligand replacement assay was repeated for three times.
(§3) Various mutations in His-tagged SlSCPx-2 were constructed by using the Stratagene QuickChange Site-Directed Mutagenesis Kit (TAKARA, Dalian, China). Recombined plasmid containing SlSCPx-2 fused with the His-Tag sequence in a pPROEXTM HTa vector was used as a template. Two complementary primer pairs containing the desired mutations were used to construct each gene mutant. All mutant sequences were confirmed by DNA sequencing. The binding affinity of the mutants with the various ligands was examined using the fluorescence displacement assay as described above.

[6] = target: SlSCPx-2 F53A (Spodoptera litura, UniProt D1GJ60, F443A); assay: biochemical; type: binding
Protocol: as §2, §3

[7] = target: SlSCPx-2 F53W (Spodoptera litura, UniProt D1GJ60, F443W); assay: biochemical; type: binding
Protocol: as §2, §3

[8] = target: SlSCPx-2 F89A (Spodoptera litura, UniProt D1GJ60, F479A); assay: biochemical; type: binding
Protocol: as §2, §3

[9] = target: SlSCPx-2 I115M (Spodoptera litura, UniProt D1GJ60, I505M); assay: biochemical; type: binding
Protocol: as §2, §3

[10] = target: SlSCPx-2 Q131A (Spodoptera litura, UniProt D1GJ60, Q521A); assay: biochemical; type: binding
Protocol: as §2, §3

[11] = target: SlSCPx-2 W66E (Spodoptera litura, UniProt D1GJ60, W456E); assay: biochemical; type: binding
Protocol: as §2, §3

[12] = target: SlSCPx-2 F89W (Spodoptera litura, UniProt D1GJ60, F479W); assay: biochemical; type: binding
Protocol: as §1, with “Binding of the fluorescent probe 1, 8-ANS to SlSCPx-2 can be competed with physiological ligands. SlSCPx-2 at 15 µM was incubated with 1, 8-ANS at 15 µM in the reaction buffer (pH 7.0) at room temperature for 2.5 min. After” for “After”
as §3

[13] = target: SlSCPx-2 T128A (Spodoptera litura, UniProt D1GJ60, T518A); assay: biochemical; type: binding
Protocol: as §1, with “Binding of the fluorescent probe 1, 8-ANS to SlSCPx-2 can be competed with physiological ligands. SlSCPx-2 at 15 µM was incubated with 1, 8-ANS at 15 µM in the reaction buffer (pH 7.0) at room temperature for 2.5 min. After” for “After”
as §3

[14] = target: SlSCPx-2 F110A (Spodoptera litura, UniProt D1GJ60, F500A); assay: biochemical; type: binding
Protocol: as §1, with “Binding of the fluorescent probe 1, 8-ANS to SlSCPx-2 can be competed with physiological ligands. SlSCPx-2 at 15 µM was incubated with 1, 8-ANS at 15 µM in the reaction buffer (pH 7.0) at room temperature for 2.5 min. After” for “After”
as §3

[15] = wild type, displacement of 15 µM 1,8-ANS from 15 µM SlSCPx-2, pH 7.0, read-out: IC50
[16] = IC50 of cholesterol (=100%) divided by IC50 of each chemical

C=CCc1cccc(/C=N/NC(=O)COc2ccccc2C)c1O [AG-205/07775053]
RBA (relative binding affinity) [1]: 0.6% | IC50 [1, 15]: 8630 ± 393 µM | inhibitory effect on the growth of S. litura larvae [2]: inhibited the growth; also recorded: high inhibitory effect; also recorded: had inhibitory effect

CCCCCCOC(=O)c1ccc(NC(=O)CCC)cc1 [AG-205/36813059]
RBA (relative binding affinity) [1]: 210% | IC50 [1, 15]: 23.9 ± 1.38 µM | inhibitory effect on the growth of S. litura larvae [2]: inhibited the growth; also recorded: a certain degree of biological activity; also recorded: had inhibitory effect

Cc1cc(OCCCCc2c(C)n[nH]c2C)ccc1Cl [AG-664/14117324]
RBA (relative binding affinity) [1]: 1943% | IC50 [1, 15]: 2.58 ± 0.2 µM | body weight of the treated larvae [2]: decreased, significantly | inhibitory effect on the growth of S. litura larvae [2]: inhibited the growth; also recorded: had inhibitory effect

CCc1ccc(C(=O)/C=C/Nc2ccc(NC(C)=O)cc2)cc1 [AH-487/41731687]
RBA (relative binding affinity) [1]: 1166% | IC50 [1, 15]: 4.3 ± 0.63 µM | body weight of the treated larvae [2]: decreased, significantly | inhibitory effect on the growth of S. litura larvae [2]: inhibited the growth; also recorded: had inhibitory effect

CC(=O)Nc1ccc(Nc2nc(-c3ccc(Cl)c(Cl)c3)cs2)cc1 [AeSCPI-1, reference compound]
RBA (relative binding affinity) [1]: 31% | IC50 [1, 15]: 161 ± 5.03 µM | time to kill the larvae post the treatment ([3]; A. aegypti larvae): ≤ 3 days | lethality to H. armigera neonates [4]: lethal

COc1cccc(-n2sc3c(c2=S)-c2cc(Cl)ccc2NC3(C)C)c1 [AeSCPI-2, reference compound]
RBA (relative binding affinity) [1]: 91% | IC50 [1, 15]: 55 ± 0.66 µM | mortality in A. aegypti [3]: caused death at larva-to-pupa transition period

CCCCC/C=C\C/C=C\C/C=C\C/C=C\CCCC(=O)O [Arachidonate, arachidonic acid]
IC50 [1]: 18.1 ± 0.83 µM | RBA (relative binding affinity) [1, 16]: 277%

CC(C)CCC[C@@H](C)[C@H]1CC[C@H]2[C@@H]3CC=C4C[C@@H](O)CC[C@]4(C)[C@H]3CC[C@]12C [Cholesterol, reference compound]
RBAchol / RBApal ([1]; wild type): 100% | IC50 [1, 15]: 50.1 ± 0.8 µM | IC50 [5]: 231 ± 2.36 µM | IC50 [6]: 7300 ± 280 µM | IC50 [7]: 4669 ± 23.2 µM | IC50 [8]: 1743 ± 1.3 µM | IC50 [9]: 34.3 ± 1.53 µM | IC50 [10]: 2690 ± 34.2 µM | IC50 [11]: 974 ± 10.7 µM | IC50 [12]: 5.58 ± 1.23 µM | IC50 [13]: 20.8 ± 1.32 µM

CC(C)[C@@H](C)/C=C/[C@@H](C)[C@H]1CC[C@H]2C3=CC=C4C[C@@H](O)CC[C@]4(C)[C@H]3CC[C@]12C [Ergosterol]
IC50 [1]: 167.6 ± 0.34 µM | RBA (relative binding affinity) [1]: 30%

CCCCC/C=C\C/C=C\CCCCCCCC(=O)O [Linoleic acid]
RBA (relative binding affinity) [1]: 35% | IC50 [1, 15]: 143 ± 0.99 µM

CCCCCCCC(=O)O [Octanoate, reference compound]
RBA (relative binding affinity) [1, 16]: 23% | IC50 [1, 15]: 217.9 ± 1.53 µM

CCCCCCCC/C=C\CCCCCCCC(=O)O [Oleic acid]
IC50 [1]: 24.4 ± 1.14 µM | RBA (relative binding affinity) [1]: 206%

CCCCCCCCCCCCCCCC(=O)O [Palmitic acid]
RBA (relative binding affinity) [1]: 85% | RBAchol / RBApal ([1]; wild type): 100% | IC50 [1, 15]: 59.1 ± 1.29 µM | IC50 [5]: 503.3 ± 2.7 µM | IC50 [6]: 71.7 ± 0.84 µM | IC50 [7]: 5777 ± 28 µM | IC50 [9]: 6617 ± 38.2 µM | IC50 [10]: 354.8 ± 2.55 µM | IC50 [11]: 67.3 ± 3.43 µM | IC50 [14]: 41.7 ± 1.62 µM | IC50 [12]: 77.5 ± 1.51 µM | IC50 [13]: 32.8 ± 1.52 µM

CCCCCCCCCCCCCCCCCC(=O)O [Stearic acid]
RBA (relative binding affinity) [1]: 126% | IC50 [1, 15]: 39.8 ± 1.17 µM

CC[C@H](/C=C/[C@@H](C)[C@H]1CC[C@H]2[C@@H]3CC=C4C[C@@H](O)CC[C@]4(C)[C@H]3CC[C@]12C)C(C)C [Stigmasterol]
IC50 [1]: 190 ± 2.29 µM | RBA (relative binding affinity) [1]: 26%
